Laboratory results from PubChem BioAssay AID1259411 (Chemical Carcinogenesis Research Information System (CCRIS), 2018).
Active and inactive are the calls of the source. No rule for the calls is given here.

System: rodent carcinogenicity bioassays, tumor incidence
Assay: CCRIS carcinogenicity studies
Procedure, shortened: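 NCI-built, expert-reviewed records of carcinogenicity and related test outcomes (mutagenicity, tumor promotion/inhibition) compiled from published and report sources, historical span 1985-2011, not updated.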

With `O=C(O)C1=NN(c2ccc(S(=O)(=O)O)cc2)C(=O)C1N=Nc1ccc(S(=O)(=O)O)cc1` (stereo not given) the carcinogen call (Species: MOUSE, Strain/Sex: ICR/FEMALE, Route: DERMAL, Dose: 0, 1 MG IN 0.1 ML DISTILLED WATER 2/WK FOR A MEAN TOTAL DOSE OF 133.4 MG (STUDY DURATION: 18 MO)) was “inactive; negative”, the carcinogen call (Species: MOUSE, Strain/Sex: ICR/MALE, Route: DERMAL, Dose: 0, 1 MG IN 0.1 ML DISTILLED WATER 2/WK FOR A MEAN TOTAL DOSE OF 133.4 MG (STUDY DURATION: 18 MO)) was “inactive; negative” and the carcinogen call (Species: RAT, Strain/Sex: F344/FEMALE, Route: ORAL, Dose: 0, 1, 2% IN DRINKING WATER FOR 104 WK (STUDY DURATION: 112 WK), Dose: 0, 1, 2% IN DRINKING WATER FOR 104 WK (STUDY DURATION: 112 WK)) was “inactive; negative”. The carcinogen call (Species: RAT, Strain/Sex: F344/MALE, Route: ORAL, Dose: 0, 1, 2% IN DRINKING WATER FOR 104 WK (STUDY DURATION: 112 WK), Dose: 0, 1, 2% IN DRINKING WATER FOR 104 WK (STUDY DURATION: 112 WK)) was “inactive; negative”.
In the case of `CC(=O)Nc1ccc(/C=C/c2ccccc2)cc1`, the carcinogen call (Species: RAT, Strain/Sex: HOLTZMAN/MALE, Route: ORAL, Dose: 0, 0.0046% IN DIET FOR WK 0-13 (STUDY DURATION: 40 WK), Tumor Site: Type of Lesion: EAR DUCT GLAND: CARCINOMA) is reported as “active; positive”.
With `Cc1c(C(=O)O)c(O)cc2c1C(=O)c1c(O)c([C@@H]3O[C@@H](CO)[C@H](O)[C@@H](O)[C@H]3O)c(O)c(O)c1C2=O` the carcinogen call (Species: RAT, Strain/Sex: WISTAR/FEMALE, Route: ORAL, Dose: 0, 50, 150, 500 MG/KG/D IN BASAL DIET TO PUPS OF PARENTS GIVEN THE SAME DIETARY DOSE LEVELS FOR 60 D PRIOR TO MATING AND, Dose: 0, 50, 150, 500 MG/KG/D IN BASAL DIET TO PUPS OF PARENTS GIVEN THE SAME DIETARY DOSE LEVELS FOR 60 D PRIOR TO MATING AND) was “inactive; negative” and the carcinogen call (Species: RAT, Strain/Sex: WISTAR/MALE, Route: ORAL, Dose: 0, 50, 150, 500 MG/KG/D IN BASAL DIET TO PUPS OF PARENTS GIVEN THE SAME DIETARY DOSE LEVELS FOR 60 D PRIOR TO MATING AND, Dose: 0, 50, 150, 500 MG/KG/D IN BASAL DIET TO PUPS OF PARENTS GIVEN THE SAME DIETARY DOSE LEVELS FOR 60 D PRIOR TO MATING AND) was “inactive; negative”.
With `O=Cc1ccc(CO)o1` the carcinogen call (Species: MOUSE, Strain/Sex: B6C3F1/MALE, Route: INTRAPERITONEAL, Dose: 0, 0.25, 1 UMOL/G BW IN 5 µL DMSO/G BW ONCE, Dose: 0, 0.25, 1 UMOL/G BW IN 5 µL DMSO/G BW ONCE) was “inactive; negative”, the carcinogen call (Species: MOUSE, Strain/Sex: CD-1/FEMALE, Route: DERMAL, Dose: 0, 50 UMOL/0.1 ML DMSO 2/WK FOR 5 WK FOLLOWED 1 WK LATER BY 0.1 ML ACETONE 2/WK FOR 47 WK (STUDY DURATION: 52 WK)) was “inactive; negative” and the carcinogen call (Species: Mouse, Strain/Sex: B6C3F1/ Female (50/Group), Route: Oral, Dose: 0, 188, 375, 750 mg/kg by gavage in deionized water for 2 yr, Dose: 0, 188, 375, 750 mg/kg by gavage in deionized water for 2 yr, Tumor Site: Type of Lesion: Liver: hepatocellular adenoma (14/50, 26/49, 26/50, 6/50)) was “inactive; negative (ntp reports as some evidence based on increased incidences of hepatoce”. The carcinogen call (Species: Mouse, Strain/Sex: B6C3F1/ Male (50/Group), Route: Oral, Dose: 0, 188, 375, 750 mg/kg by gavage in deionized water for 2 yr, Dose: 0, 188, 375, 750 mg/kg by gavage in deionized water for 2 yr) was “inactive; negative”, the carcinogen call (Species: Rat, Strain/Sex: F344/N / Female (50/Group), Route: Oral, Dose: 0, 188, 375, 750 mg/kg by gavage in deionized water for 2 yr, Dose: 0, 188, 375, 750 mg/kg by gavage in deionized water for 2 yr) was “inactive; negative” and the carcinogen call (Species: Rat, Strain/Sex: F344/N / Male (50/Group), Route: Oral, Dose: 0, 188, 375, 750 mg/kg by gavage in deionized water for 2 yr, Dose: 0, 188, 375, 750 mg/kg by gavage in deionized water for 2 yr) was “inactive; negative”.
`C[C@]12C/C(=C/O)C(=O)C[C@@H]1CC[C@@H]1[C@@H]2CC[C@@]2(C)[C@H]1CC[C@]2(C)O` was tested, and the carcinogen call (Species: HUMAN, Route: ORAL, Tumor Site: Type of Lesion: LIVER) was “active; positive”, the carcinogen call (Species: RAT, Strain/Sex: F344/N/FEMALE, Route: GAVAGE, Dose: 0, 3, 30, 100 MG/KG IN 0.5% METHYLCELLULOSE FOR 104 WK (STUDY DURATION: 104 WK), Dose: 0, 3, 30, 100 MG/KG IN 0.5% METHYLCELLULOSE FOR 104 WK (STUDY DURATION: 104 WK), Tumor Site: Type of Lesion: LIVER: HEPATOCELLULAR ADENOMA, HEPATOCELLULAR ADENOMA OR CARCINOMA, LUNG: ALVEOLAR/BRONCHIOLAR ADENOMA, ALVEOLAR/BRONCHI) was “active; positive” and the carcinogen call (Species: RAT, Strain/Sex: F344/N/MALE, Route: GAVAGE, Dose: 0, 3, 30, 150 MG/KG IN 0.5% METHYLCELLULOSE FOR 104 WK (STUDY DURATION: 104 WK), Dose: 0, 3, 30, 150 MG/KG IN 0.5% METHYLCELLULOSE FOR 104 WK (STUDY DURATION: 104 WK), Tumor Site: Type of Lesion: SKIN (SUBCUTANEOUS TISSUE): FIBROMA, FIBROMA OR FIBROSARCOMA, ADRENAL GLAND: BENIGN PHEOCHROMOCYTOMA, BENIGN PHEOCHROMOC) was “equivocal”.
In the case of `O=[As]O`, the carcinogen call (Species: Mouse, Strain/Sex: C3H/10 pregnant dams/group, 25 male and 25 female offspring per group assigned at 4 wks of age, Route: Oral, Dose: 0, 42.5, 85 ppm in drinking water of dams, offspring followed for 90 wks, Tumor Site: Type of Lesion: Hepatocellular carcinoma in offspring) is reported as “active; positive”, the carcinogen call (Species: Mouse, Strain/Sex: C3H/Female offspring, Route: Oral, Dose: 0, 85 ppm (in drinking water of dam) in utero) is reported as “inactive; negative” and the carcinogen call (Species: Mouse, Strain/Sex: C3H/Female offspring, Route: Oral, Dose: 0, 85 ppm in drinking water post pubescence (PND 56) to 365 days) is reported as “inactive; negative (hyperplasia only, no tumors)”. For the same compound, the carcinogen call (Species: Mouse, Strain/Sex: C3H/Female offspring, Route: Oral, Dose: 0, 85 ppm in drinking water prior to pubescence (PND 21) to 365 days) was “inactive; negative (hyperplasia only, no increase in tumors)”, the carcinogen call (Species: Mouse, Strain/Sex: C3H/Female offspring, Route: Oral, Dose: 0, 85 ppm in utero and in drinking water to 365 days) was “inactive; negative” and the carcinogen call (Species: Mouse, Strain/Sex: C3H/HeNCr F344/ Male and female (25-35/Group as offspring of 10 dams per exposure level), Route: Drinking water, Dose: 0, 42.5, 85 ppm ad lib on gestation days 8-18, study duration for offspring 90 wks, Tumor Site: Type of Lesion: Male offspring: Liver: hepatocellular carcinoma (statistically significant increase in incidence and multiplicity), Adre) was “active; positive”. For the same compound, the carcinogen call (Species: Mouse, Strain/Sex: C3H/Male offspring, Route: Oral, Dose: 0, 85 ppm (in drinking water of dam) in utero) was “inactive; negative”, the carcinogen call (Species: Mouse, Strain/Sex: C3H/Male offspring, Route: Oral, Dose: 0, 85 ppm in drinking water post pubescence (PND 56) to 365 days) was “inactive; negative (decreased incidence of spontaneous tumors)” and the carcinogen call (Species: Mouse, Strain/Sex: C3H/Male offspring, Route: Oral, Dose: 0, 85 ppm in drinking water prior to pubescence (PND 21) to 365 days) was “inactive; negative (decreased incidence of spontaneous tumors)”. For the same compound, the carcinogen call (Species: Mouse, Strain/Sex: C3H/Male offspring, Route: Oral, Dose: 0, 85 ppm in utero and in drinking water to 365 days, Tumor Site: Type of Lesion: Liver: adenoma and carcinoma (30%, 0%)) was “active; positive”.
`Cc1ccc(N=Nc2c(O)ccc3ccccc23)c([N+](=O)[O-])c1` was tested, and the carcinogen call (Species: MOUSE, Strain/Sex: B6C3F1/FEMALE, Route: ORAL, Dose: 0, 12500, 25000, 50000 PPM IN FEED FOR 2 YR (STUDY DURATION: 2 YR), Dose: 0, 12500, 25000, 50000 PPM IN FEED FOR 2 YR (STUDY DURATION: 2 YR)) was “inactive; negative”, the carcinogen call (Species: MOUSE, Strain/Sex: B6C3F1/MALE, Route: ORAL, Dose: 0, 12500, 25000, 50000 PPM IN FEED FOR 2 YR (STUDY DURATION: 2 YR), Dose: 0, 12500, 25000, 50000 PPM IN FEED FOR 2 YR (STUDY DURATION: 2 YR), Tumor Site: Type of Lesion: KIDNEY (CORTEX): ADENOMA, THYROID GLAND (FOLLICULAR CELL): ADENOMA) was “active; positive” and the carcinogen call (Species: RAT, Strain/Sex: F344/FEMALE, Route: ORAL, Dose: 0, 6000, 12500, 25000 PPM IN FEED FOR 2 YR (STUDY DURATION: 2 YR), Dose: 0, 6000, 12500, 25000 PPM IN FEED FOR 2 YR (STUDY DURATION: 2 YR), Tumor Site: Type of Lesion: LIVER: HEPATOCELLULAR ADENOMA) was “active; positive”. For the same compound, the carcinogen call (Species: RAT, Strain/Sex: F344/MALE, Route: ORAL, Dose: 0, 6000, 12500, 25000 PPM IN FEED FOR 2 YR (STUDY DURATION: 2 YR), Dose: 0, 6000, 12500, 25000 PPM IN FEED FOR 2 YR (STUDY DURATION: 2 YR), Tumor Site: Type of Lesion: ADRENAL MEDULLA: PHEOCHROMOCYTOMA (BENIGN OR MALIGNANT)) was “active; positive”.
For `CCc1cc(C(N)=S)ccn1`, the carcinogen call (Species: MOUSE, Route: ORAL, Tumor Site: Type of Lesion: THYROID GLAND) was “active; positive”, the carcinogen call (Species: MOUSE, Strain/Sex: B6C3F1/FEMALE, Route: ORAL, Dose: 0, 1000, 2000 PPM IN DIET, Dose: 0, 1000, 2000 PPM IN DIET) was “inactive; negative” and the carcinogen call (Species: MOUSE, Strain/Sex: B6C3F1/MALE, Route: ORAL, Dose: 0, 1000, 2000 PPM IN DIET, Dose: 0, 1000, 2000 PPM IN DIET) was “inactive; negative”. The carcinogen call (Species: RAT, Strain/Sex: F344/FEMALE, Route: ORAL, Dose: 0, 1500, 3000 PPM IN DIET, Dose: 0, 1500, 3000 PPM IN DIET) was “inactive; negative” and the carcinogen call (Species: RAT, Strain/Sex: F344/MALE, Route: ORAL, Dose: 0, 1500, 3000 PPM IN DIET, Dose: 0, 1500, 3000 PPM IN DIET) was “inactive; negative”.
